According to patent US20200206231A1, “TOPICAL PHARMACEUTICAL COMPOSITION, METHOD FOR PRODUCING THE TOPICAL PHARMACEUTICAL COMPOSITION, USE OF TOPICAL PHARMACEUTICAL COMPOSITION AND METHOD FOR TOPICAL TREATMENT OF PSORIASIS, ATOPIC DERMATITIS OR CHRONIC ECZEMA” (BIOLAB SANUS FARMACÊUTICA LTDA., priority 2012, published 2020):

Assays:
Format in all cases: cell-based
Settings in all cases: human keratinocytes + LPS, 48 hours, mean ± standard deviation
IL-1 = test: Production of IL-1 in LPS-stimulated human keratinocyte culture (sandwich ELISA)
Protocol: (§1) the effect of formulation 1 (described in example 1) was evaluated In this study, in the synthesis of inflammatory mediators: IL-1, IL-6, IL-8, IL-10, IL-12, prostaglandin E2 (PGE2), Leukotriene B4 (LBT4), interferon gamma (IFN-gamma) and tumor necrosis factor alpha (TNF-alpha) in a culture of human keratinocytes in basal condition and stimulated with bacterial lipopolysaccharides (LPS), to simulate the inflammatory response.
(§2) Human keratinocytes (Cascade Biologics, USA) were sown in 75 cm^2 bottles (Corning Inc, USA), cultured and expanded in a wet incubator to 37° C. in the presence of CO2, using a specific culture medium. When reaching confluence, cells were seeded in 24 well plates (Nunc, USA) for further incubation with non-toxic dilutions of formulation 1, described in example 1, and for evaluation of proposed mediators.
(§3) The evaluated concentrations were 0.0002; 0.0001; and 0.000025 and 0.00005% (w/v).
(§4) Cells were kept in touch with dilutions of the formulations and LPS (Sigma, USA) for 48 hours for further collection of the supernatant and the cell lysate. As a positive control of production of mediators, the cells were kept in touch only with LPS (Sigma, USA) in the same amount administered along with the formulations (samples), and as a basal control, cells alone were used, without the presence of LPS or formulations.
(§5) Quantification of inflammatory mediators (IL-1, IL-6, IL-8, IL-10, IL-12, IFN-gamma and TNF-alpha) was performed using a kit of enzyme-linked immunosorbent assay (sandwich ELISA) commercially available. And the quantification of PGE2 and LBT4 mediators was performed by an ELISA competitive binding assay. The results were expressed in pg/mL, calculated from the values of references obtained with a standard curve constructed with known concentrations of the mediators of interest (table 2).

TNF-alpha = test: Production of TNF-alpha in LPS-stimulated human keratinocyte culture (sandwich ELISA)
Protocol: as §1, §2, §4, §5

IL-8 = test: Production of IL-8 in LPS-stimulated human keratinocyte culture (sandwich ELISA)
Protocol: as §1, §2, §3, §4, §5

IL-12 = test: Production of IL-12 in LPS-stimulated human keratinocyte culture (sandwich ELISA)
Protocol: as §1, §2, §3, §4, §5

IL-10 = test: Production of IL-10 in LPS-stimulated human keratinocyte culture (sandwich ELISA)
Protocol: as §1, §2, §3, §4, §5

LTB4 = test: Production of LTB4 in LPS-stimulated human keratinocyte culture (ELISA competitive binding assay)
Protocol: as §1, §2, §3, §4, §5

| Structure (SMILES) | Production of inflammatory mediators: IL-1 (IL-1; Dilution: 0.00005 (% w/v)) [pg/mL] | Production of inflammatory mediators: IL-1 (IL-1; Dilution: 0.0002 (% w/v)) [pg/mL] | Production of inflammatory mediators: TNF-alpha (TNF-alpha; Dilution: 0.00005 (% w/v)) [pg/mL] | Production of inflammatory mediators: TNF-alpha (TNF-alpha; Dilution: 0.0002 (% w/v)) [pg/mL] | Production of inflammatory mediators: IL-8 (IL-8; Dilution: 0.00005 (% w/v)) [pg/mL] | Production of inflammatory mediators: IL-8 (IL-8; Dilution: 0.0002 (% w/v)) [pg/mL] | Production of inflammatory mediators: IL-12 (IL-12; Dilution: 0.00005 (% w/v)) [pg/mL] | Production of inflammatory mediators: IL-12 (IL-12; Dilution: 0.0002 (% w/v)) [pg/mL] | Production of inflammatory mediators: IL-10 (IL-10; Dilution: 0.00005 (% w/v)) [pg/mL] | Production of inflammatory mediators: IL-10 (IL-10; Dilution: 0.0002 (% w/v)) [pg/mL] | Production of inflammatory mediators: LTB4 (LTB4; Dilution: 0.00005 (% w/v)) [pg/mL] | Production of inflammatory mediators: LTB4 (LTB4; Dilution: 0.0002 (% w/v)) [pg/mL] |
| --- | --- | --- | --- | --- | --- | --- | --- | --- | --- | --- | --- | --- |
| CC(C)=CCC[C@@](C)(O)[C@H]1CC=C(C)CC1 [Alpha bisabolol, 1-methyl-4-(1,5-dimethyl-1-hydroxy-4(5)-hexenyl)-1-cyclohexene] | 313.43 ± 33.30 | 354.74 ± 37.03 | 6.64 ± 0.32 | 8.00 ± 1.61 | 64.23 ± 13.00 | 28.90 ± 9.58 | 979.50 ± 35.35 | 954.50 ± 70.71 | 27.15 ± 2.99 | 28.30 ± 1.36 | 1083.83 ± 115.59 | 648.55 ± 11.09 |
| CN(Cc1cnc2nc(N)nc(N)c2n1)c1ccc(C(=O)N[C@@H](CCC(=O)O)C(=O)O)cc1 [Methotrexate] | 291.69 ± 34.42 | 187.35 ± 26.22 |  | 4.82 ± 0.32 | 39.07 ± 7.53 | 19.39 ± 8.00 | 1042.00 ± 53.03 | 1004.50 ± 70.71 | 29.08 ± 1.36 | 23.11 ± 1.08 | 1282.15 ± 174.81 | 543.82 ± 78.75 |
